Laboratory results: patent publication US7208505B2, “β3 adrenergic agonists” (Eli Lilly and Company, priority 2001, dated 2007)

Target: T1, human β3 adrenergic receptor (Homo sapiens, UniProt P13945)
T1 construct: expressed in transfected cells
Assay: whole cell receptor coupled c-AMP assay (Emax relative to isoproterenol)
Assay type: cell-based
Settings: % intrinsic activity: maximal response divided by isoproterenol maximal response times 100; transfected CHO cells; average of at least 3 runs
Text: The genes encoding the human β1-adrenergic receptor (Frielle et al., Proc. Natl. Acad. Sci., 84:7920–7924, 1987), the human β2-adrenergic receptor (Kobika et al., Proc. Natl. Acad. Sci., 84:46–50, 1987, Emorine et al., Proc. Natl. Acad. Sci., 84:6995–6999, 1987) and the human β3 adrenergic receptor (Granneman et al., Molecular Pharmacology, 44(2):264–70, 1993) are individually subcloned into a phd expression vector (Grinnell et al., Bio/Technology, 5:1189–1192, 1987) and transfected into the DXB-11 Chinese hamster ovary (CHO) cell line by calcium phosphate precipitation methodology. The stably transfected cells are grown to 95% confluency in 95% Dulbecco's modified Eagles Medium (DMEM), 5% fetal bovine serum and 0.01% proline. Media is removed and the cells are washed with phosphate buffered (pH 7.4) saline (without magnesium and calcium). Cells are then lifted using an enzyme free cell dissociation solution (Specialty Media, Lavallette, N.J.) and pelleted by centrifugation.
Cells from each of the above cell lines are resuspended and added (20,000/well) to a 96-well plate. Cells are incubated at 37° C. with representative compounds of the invention for 20 minutes in buffer (Hank's balanced salt solution, 10 mM HEPES, 0.1% BSA, 1 mM L-ascorbic acid, 0.2% dimethyl sulfoxide, 1 mM 3-isobutyl-1-methylxanthine, pH 7.4). After halting the incubation with quench buffer (50 mM Na Acetate, 0.25% Triton X-100, pH 5.8), the c-AMP level is quantified by scintillation proximity assay (SPA) using a modification of the commercially available c-AMP kit (Amersham, Arlington Heights, Ill.) with rabbit anti-cAMP antibody (ICN Biomedicals, Aurora, Ohio) for the kit.
Sigmoidal dose response curves, from the whole cell receptor coupled c-AMP assay are fit to a four parameter logistic equation using non linear regression: y=(a−d)/(1+(Dose/c)^b)+d where a and d are responses at zero and maximal dose, b is the slope factor and c is the EC50 as previously described (DeLean et al., Am. J. Physiol., 235, E97-E102, 1978). EC50 is assessed as the concentration producing 50% of the maximum response to each agonist.
Isoproterenol is accepted in the art as a non-selective β3 agonist and is widely used as a comparator in evaluating the activity of compounds. See Trends in Pharm. Sci., 15:3, 1994. The % intrinsic activity (Emax) of representative compounds of the invention is assessed relative to isoproterenol by the compound's maximal response divided by the isoproterenol maximal response times 100.

T1 sequence (P13945 whole entry): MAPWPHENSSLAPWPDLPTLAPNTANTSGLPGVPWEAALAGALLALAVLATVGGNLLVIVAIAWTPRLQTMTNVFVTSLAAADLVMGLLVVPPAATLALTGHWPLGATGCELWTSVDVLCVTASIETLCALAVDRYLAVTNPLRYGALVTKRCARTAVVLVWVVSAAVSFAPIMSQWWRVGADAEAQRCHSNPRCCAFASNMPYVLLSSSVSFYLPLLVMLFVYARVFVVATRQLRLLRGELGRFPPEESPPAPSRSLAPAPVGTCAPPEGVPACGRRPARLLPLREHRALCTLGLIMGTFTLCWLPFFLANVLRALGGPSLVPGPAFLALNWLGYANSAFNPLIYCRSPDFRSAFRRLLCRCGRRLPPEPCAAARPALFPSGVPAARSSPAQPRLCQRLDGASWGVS

Compared with CC(C)(Cc1c[nH]c2cc(F)ccc12)NC[C@H](O)COc1ccccc1-c1ccon1 [Example 172], CC(C)(Cc1c[nH]c2ccccc12)NC[C@H](O)COc1ccc(F)cc1-c1ccon1 [Example 80] is lower in “Emax (%) ± SEM” value: 55.0 ± 1.1% for the first, 43.4 ± 2.0% for the second.

First: CC(C)(Cc1c[nH]c2ccccc12)NC[C@H](O)COc1ccccc1-c1cocn1 [Example 31]
Second: CC(C)(Cc1c[nH]c2ccccc12)NC[C@H](O)COc1ccccc1-c1ccon1 [Example 164]
The “Emax (%) ± SEM” value of the first is higher: 62.4 ± 2.1% for the first, 53.9 ± 2.6% for the second.

CC(C)(CNC(=O)c1c[nH]c2ccccc12)NC[C@H](O)COc1ccccc1-c1cccs1 [Example 73] and COC(=O)c1cccc2[nH]cc(CC(C)(C)NC[C@H](O)COc3ccccc3-c3cccs3)c12 [Example 69] are within error of each other in “Emax (%) ± SEM” value: 32.1 ± 3.3% for the first, 39.1 ± 7.1% for the second.

COC(=O)CCc1cccc2c(CC(C)(C)NC[C@H](O)COc3ccccc3-c3cccs3)c[nH]c12 [Example 145] and CC(C)(Cc1c[nH]c2c(CCS(C)(=O)=O)cccc12)NC[C@H](O)COc1ccccc1-c1cccs1 [Example 142] are within error of each other in “Emax (%) ± SEM” value: 79.3 ± 7.1% for the first, 82.1 ± 1.4% for the second.

CC(C)(Cc1c[nH]c2c(C(=O)O)cccc12)NC[C@H](O)COc1ccccc1-c1ccc(S(N)(=O)=O)s1 [Example 54] and CC(C)(Cc1c[nH]c2cc(C(=O)O)ccc12)NC[C@H](O)COc1ccccc1-c1ccc(S(N)(=O)=O)s1 [Example 55] are within error of each other in “Emax (%) ± SEM” value: 79.0 ± 3.5% for the first, 78.4 ± 0.2% for the second.

Going from CC(C)(Cc1c[nH]c2c(C=CC#N)cccc12)NCC(O)COc1ccccc1-c1cccs1 (stereo not shown) [Example 143] to CC(C)(Cc1c[nH]c2c(C=CC(N)=O)cccc12)NCC(O)COc1ccccc1-c1cccs1 (stereo not shown) [Example 139], the “Emax (%) ± SEM” value rises from 66.4 ± 8.7% to 86.5 ± 5.5%.

CC(C)(Cc1c[nH]c2c(OCC#N)cccc12)NC[C@H](O)COc1ccccc1-n1cccc1 [Example 1] and CC(C)(Cc1c[nH]c2c(OCC#N)cccc12)NC[C@H](O)COc1ccccc1-c1cccs1 [Example 137] are within error of each other in “Emax (%) ± SEM” value: 64.1 ± 4.5% for the first, 65.5 ± 4.7% for the second.

Compared with CC(C)(Cc1c[nH]c2c(Oc3ccc(C#N)cn3)cccc12)NC[C@H](O)COc1ccccc1-c1ccon1 [Example 116], CC(C)(Cc1c[nH]c2c(-c3cccc(C(F)(F)F)c3)cccc12)NC[C@H](O)COc1ccccc1-c1ccon1 [Example 38] is higher in “Emax (%) ± SEM” value: 58.1 ± 1.6% for the first, 78.0 ± 2.8% for the second.

Going from CC(C)(Cc1c[nH]c2ccccc12)NC[C@H](O)COc1ccccc1-c1nccs1 [Example 68] to CC(C)(Cc1c[nH]c2ccccc12)NC[C@H](O)COc1ccccc1-c1cnco1 [Example 34], the “Emax (%) ± SEM” value rises from 53.2 ± 1.6% to 64.5 ± 2.1%.

Going from CC(C)(Cc1c[nH]c2c(OCC#N)cccc12)NC[C@H](O)COc1ccccc1-c1cc(C#N)cs1.O=C(O)C(F)(F)F [Example 20] to CC(C)(Cc1c[nH]c2c(OCC#N)cccc12)NC[C@H](O)COc1ccccc1-c1ccc(C#N)s1.O=C(O)C(F)(F)F [Example 12], the “Emax (%) ± SEM” value rises from 59.1 ± 3.1% to 77.7 ± 4.6%.

Going from CC(C)(Cc1c[nH]c2ccc(OCC#N)cc12)NC[C@H](O)COc1ccccc1-c1cccs1 [Example 169] to CC(C)(Cc1c[nH]c2cc(C=CC#N)ccc12)NC[C@H](O)COc1ccccc1-c1cccs1 [Example 190], the “Emax (%) ± SEM” value rises from 51.9 ± 3.4% to 69.3 ± 1.3%.

Going from CC(=O)Nc1ccc(-c2cccc3c(CC(C)(C)NC[C@H](O)COc4ccccc4-c4ccon4)c[nH]c23)cc1 [Example 183] to CC(C)(Cc1c[nH]c2c(NS(=O)(=O)c3ccccc3)cccc12)NC[C@H](O)COc1ccccc1-c1ccon1 [Example 26], the “Emax (%) ± SEM” value rises from 47.7 ± 1.6% to 70.9 ± 5.4%.

First: CCOC(=O)c1cccc(-c2cccc3c(CC(C)(C)NC[C@H](O)COc4ccccc4-n4cccc4)c[nH]c23)c1 [Example 42]
Second: CC(C)(Cc1c[nH]c2c(OCC(=O)O)cccc12)NC[C@H](O)COc1ccccc1-c1cccs1 [Example 224]
The “Emax (%) ± SEM” value of the first is lower: 61.0 ± 4.5% for the first, 94.3 ± 4.6% for the second.

Going from CC(C)(Cc1c[nH]c2c(OCC#N)cccc12)NC[C@H](O)COc1ccccc1-c1cnco1.O=C(O)C(F)(F)F [Example 7] to Cc1ccc(-c2ccccc2OC[C@@H](O)CNC(C)(C)Cc2c[nH]c3c(OCC#N)cccc23)s1.O=C(O)C(F)(F)F [Example 14], the “Emax (%) ± SEM” value rises from 58.4 ± 1.7% to 75.2 ± 3.0%.

First: C[C@H](Cn1ccc2c(OCC#N)cccc21)NC[C@H](O)COc1ccccc1-c1ccns1 [Example 151]
Second: C[C@H](Cn1ccc2ccc(OCC#N)cc21)NC[C@H](O)COc1ccccc1-c1cccs1 [Example 67]
The “Emax (%) ± SEM” value of the first is higher: 52.4 ± 4.3% for the first, 28.6 ± 3.4% for the second.

Compared with CC(C)(Cc1c[nH]c2cc(C(=O)O)ccc12)NC[C@H](O)COc1ccccc1-c1ccsc1 [Example 62], CC(C)(Cc1c[nH]c2cc(C(=O)O)ccc12)NC[C@H](O)COc1ccccc1-c1ccc(C#N)s1 [Example 96] is higher in “Emax (%) ± SEM” value: 63.8 ± 0.5% for the first, 74.1 ± 2.4% for the second.

C[C@H](CN1CCc2ccccc21)NC[C@H](O)COc1ccccc1-c1ccon1 [Example 129] and COC(=O)c1ccc2c(ccn2C[C@@H](C)NC[C@H](O)COc2ccccc2-c2cccs2)c1 [Example 154] are within error of each other in “Emax (%) ± SEM” value: 35.2 ± 3.3% for the first, 32.4 ± 8.1% for the second.

First: CC(C)(Cc1c[nH]c2c(NS(C)(=O)=O)cccc12)NC[C@H](O)COc1ccccc1-c1ccon1 [Example 28]
Second: CC(C)(Cc1c[nH]c2c(OCC(=O)O)cccc12)NC[C@H](O)COc1ccccc1-c1cccs1.Cl [Example 226]
The “Emax (%) ± SEM” value of the first is lower: 58.5 ± 0.5% for the first, 70.3 ± 5.7% for the second.

COC(=O)c1ccc2c(CC(C)(C)NC[C@H](O)COc3ccccc3-c3cccs3)c[nH]c2c1 [Example 75] and CC(C)(Cc1c[nH]c2ccccc12)NC[C@H](O)COc1ccccc1-c1csc(C#N)c1.O=C(O)C(F)(F)F [Example 15] are within error of each other in “Emax (%) ± SEM” value: 47.2 ± 0.3% for the first, 50.2 ± 7.3% for the second.

For CC(C)(Cc1c[nH]c2c(CCc3ccc(C#N)cc3)cccc12)NC[C@H](O)COc1ccccc1-c1cccs1 [Example 187], the “Emax (%) ± SEM” value was 77.9 ± 0.7%.

Same assay, conditions: CHO, % intrinsic activity relative to isoproterenol; transfected CHO cells

With C[C@@H](CN1CCc2cc(F)c(Cl)cc21)NC[C@H](O)COc1ccccc1-c1cccs1 [Example 195] the Emax was 8.9%.

Same assay, conditions: CHO, % intrinsic activity: maximal response divided by isoproterenol maximal response times 100; transfected CHO cells; average of at least 3 runs

C[C@H](Cn1ccc2c(OCC(=O)O)cccc21)NC[C@H](O)COc1ccccc1-c1ccns1 [Example 235] and CC(C)(Cc1c[nH]c2ccc(OCC(=O)O)cc12)NC[C@H](O)COc1ccccc1-c1cccs1 [Example 237] are within error of each other in Emax: 76.7 ± 4.4% for the first, 73.9 ± 2.9% for the second.

Compared with CC(C)(Cc1c[nH]c2c(/C=C/c3nnn[nH]3)cccc12)NC[C@H](O)COc1ccccc1-c1cccs1 [Example 230], CC(C)(Cc1c[nH]c2c(C(=O)O)cccc12)NC[C@H](O)COc1ccccc1-c1cccs1 [Example 241] is lower in Emax: 81.3 ± 2.4% for the first, 70.1 ± 0.6% for the second.

CC(C)(Cc1c[nH]c2c(Oc3ccc(C(=O)O)cn3)cccc12)NC[C@H](O)COc1ccccc1-c1ccon1 [Example 244] and CC(C)(Cc1c[nH]c2c(-c3cccc(C(=O)O)c3)cccc12)NC[C@H](O)COc1ccccc1-c1ccon1 [Example 249] are within error of each other in Emax: 77 ± 2.1% for the first, 68.8 ± 7.8% for the second.

CC(C)(Cc1c[nH]c2c(-c3cccc(C(=O)O)c3)cccc12)NC[C@H](O)COc1ccccc1-c1cccs1 [Example 248] and CC(C)(Cc1c[nH]c2c(OCC3=NCCS3)cccc12)NC[C@H](O)COc1ccccc1-c1cccs1 [Example 231] are within error of each other in Emax: 84.1 ± 1.8% for the first, 85 ± 4.9% for the second.

In the case of CC(C)(Cc1c[nH]c2ccccc12)NC[C@H](O)COc1ccccc1-c1ccc(C(=O)O)s1 [Example 221], the Emax is reported as 74.6 ± 3.6%.
